Laboratory results taken from US20060094059A1, “Methods for identifying new drug leads and new therapeutic uses for known drugs” (Odyssey Thera, Inc., priority 2004, published 2006).
Structures can show the parent of a compound that is named as a salt. Where two headings read alike, the source gives them in different places.

Columns and labels:
[1] = tested on: non-small cell lung carcinoma (A549) cells; experiment: MTT proliferation assay, NSCLC; assay type: cell-based, Human; details: Homo sapiens, Tumor Cell NSCLC (A549), 120 hours, read-out: Anti-proliferative IC-50
Description: (§1) Cells were maintained in various media as follows: A549, LoVo and PC-3 (Ham's F12K medium with 2 mM L-glutamine and 1.5 g/L sodium bicarbonate), MIA PaCa-2 (Dulbecco's modified Eagle's medium with 4 mM L-glutamine and 4.5 g/L glucose), U87-MG (MEM+Earle's BSS). Medium for each cell line was supplemented with 10% FBS and […] Penecillin/Streptomycin. All cells were grown in incubators set at 37° C., 5% CO2. Thiazolyl Blue Tetrazolium Bromide (MTT) based proliferation assays were performed to assess the anti-proliferative activities of the compounds on these cells. Cells were seeded in 96 well plates at a density of 750 cells/well 24 hours prior to compound treatment. The cells were incubated with varying concentrations of compounds for 120 hours. […] Drug treatment was performed in 5 replicate wells. Background absorbance was established by wells containing medium but no cells. Vehicle (DMSO) only was used as control. MTT (Sigma-Aldrich, St. Louis, Mo.) was added to each well at a final concentration of 0.5 mg/ml. Following a 2 hour incubation at 37° C., medium in the wells was replaced with 0.15 ml DMSO. The plates were agitated for 15 min using a microtiter plate shaker.

[2] = tested on: colon adenocarcinoma (LoVo) cells; experiment: MTT proliferation assay, colon; assay type: cell-based, Human; details: Homo sapiens, Tumor Cell Colon (LoVo), 120 hours, read-out: Anti-proliferative IC-50
Description: as §1

[3] = tested on: pancreatic carcinoma (MIA PaCa-2) cells; experiment: MTT proliferation assay, pancreatic; assay type: cell-based, Human; details: Homo sapiens, Tumor Cell Pancreatic (MIA PaCa-2), 120 hours, read-out: Anti-proliferative IC-50
Description: as §1

[4] = tested on: prostate adenocarcinoma (PC-3) cells; experiment: MTT proliferation assay, prostate; assay type: cell-based, Human; details: for IC50: Homo sapiens, Tumor Cell Prostate (PC-3), MTT, 120 hours, read-out: Anti-proliferative IC-50
Description: (§2) We used these methods to mine the known pharmacopeia for drugs with previously-unsuspected activity against cancer-related pathways. […] Hits from our cell-based screens were tested for antiproliferative activity in up to 5 different human tumor cell lines, as follows. First, drugs with significant activity in the cellular screen(s) were tested for their ability to block proliferation of a human tumor cell line (PC-3) at an initial concentration of 10 micromolar. For drugs with antiproliferative activity in PC-3 cells, dose-response curves to determine the IC50 for antiproliferative activity and additional tumor cell lines were tested to determine the breadth of activity. Methods for assessing the antiproliferative activity of the cell-based drug ‘hits’ are described below.
as §1

CDC42:PAK4 complexes = experiment: Protein-fragment complementation assay CDC42:PAK4; assay type: cell-based, human; details: for level of CDC42:PAK4 complexes (intensity of the fluorescence): FIG. 3F, compared with the vehicle alone
From the text: (§3) To construct dynamic assays for protein-protein complexes, we used a protein-fragment complementation assay strategy (PCAs) in intact human cells. (A variety of other suitable assays, and reporter options, are described in detail below.) The principle of PCA is that complementary polypeptide fragments (F[1] and F[2]) of a reporter protein or enzyme will fold into an active form only if fused to two proteins which interact and bring the complementary fragments of the reporter protein into proximity. Reconstitution of the fragments of the reporter protein generates a fluorescent signal that can be quantified in intact cells, and the amount of the signal is proportional to the amount of the protein-protein complex used in constructing the assay. Given a suitable reporter type, the subcellular location of the complex can also be measured.
(§4) Reporter fragments for PCA were generated by oligonucleotide synthesis (Blue Heron Biotechnology, Bothell, Wash.), starting with the sequence of yellow fluorescent protein (YFP). First, oligonucleotides coding for polypeptide fragments YFP[1]and YFP[2] […] Next, PCR mutagenesis was used to generate the mutant fragments IFP[1] and IFP[2]. The IFP[1] fragment corresponds to YFP[1]-(F46L, F64L, M153T) and the IFP[2] fragment corresponds to YFP[2]-(V163A, S175G). […] The YFP[1], YFP[2], IFP[1] and IFP[2] fragments were amplified by PCR to incorporate restriction sites and a linker sequence, described below, in configurations that would allow fusion of a gene of interest to either the 5′- or 3′-end of each reporter fragment. The reporter-linker fragment cassettes were subcloned into a mammalian expression vector (pcDNA3.1Z, Invitrogen) that had been modified to incorporate the replication origin (oriP) of the Epstein Barr virus (EBV). […] Additionally, these vectors still retain the SV40 origin, allowing for episomal expression in cell lines expressing the SV40 large T antigen (e.g. HEK293T, Jurkat or COS).
(§5) PCA fusion constructs were prepared for a proteins known to participate in cellular pathways that have been described in the scientific literature as being linked to cancer. The selection of protein-protein complexes used, and the rationale for their use, is provided in Table 1 and the gene identifiers for the cDNAs used in assay construction are provided in Table 2. The full coding sequence for each gene of interest was amplified by PCR from a sequence-verified full-length cDNA. Resulting PCR products were column purified (Centricon), digested with appropriate restriction enzymes to allow directional cloning, and fused in-frame to either the 5′ or 3′-end of YFP[1], YFP[2], IFP[1] or IFP[2] through a linker encoding a flexible 10 amino acid peptide (Gly.Gly.Gly.Gly.Ser)2. […] Recombinants in the host strains DH5-alpha (Invitrogen, Carlsbad, Calif.) or XL1 Blue MR (Stratagene, La Jolla, Calif.) were screened by colony PCR, and clones containing inserts of the correct size were subjected to end sequencing to confirm the presence of the gene of interest and in-frame fusion to the appropriate reporter fragment. A subset of fusion constructs were selected for full-insert sequencing by primer walking. DNAs were isolated using Qiagen MaxiPrep kits (Qiagen, Chatsworth, Calif.). PCR was used to assess the integrity of each fusion construct, by combining the appropriate gene-specific primer with a reporter-specific primer to confirm that the correct gene-fusion was present and of the correct size with no internal deletions.
(§6) HEK293 cells were maintained in MEM alpha medium (Invitrogen) supplemented with 10% FBS (Gemini Bio-Products), 1% penicillin, and 1% streptomycin, and grown in a 37° C. incubator equilibrated to 5% CO2. […] Up to 100 ng of the complementary YFP or IFP-fragment fusion vectors were co-transfected using Fugene 6 (Roche) according to the manufacturer's protocol.

[5] = tested on: glioblastoma (U-87 MG) cells; experiment: MTT proliferation assay, glioblastoma; assay type: cell-based; details: Homo sapiens, Tumor Cell Glioblastoma (U-87 MG), 120 hours, read-out: Anti-proliferative IC-50
Description: as §1

human tumor cell lines = experiment: MTT proliferation assay and phase contrast images, cell line not given (FIGS. 5-10); assay type: cell-based; details: treated cells vs. DMSO control, cell line not named
Description: as §2
Cells were maintained in various media as follows: A549, LoVo and PC-3 (Ham's F12K medium with 2 mM L-glutamine and 1.5 g/L sodium bicarbonate), MIA PaCa-2 (Dulbecco's modified Eagle's medium with 4 mM L-glutamine and 4.5 g/L glucose), U87-MG (MEM+Earle's BSS). Medium for each cell line was supplemented with 10% FBS and […] Penecillin/Streptomycin. All cells were grown in incubators set at 37° C., 5% CO2. Thiazolyl Blue Tetrazolium Bromide (MTT) based proliferation assays were performed to assess the anti-proliferative activities of the compounds on these cells. Cells were seeded in 96 well plates at a density of 750 cells/well 24 hours prior to compound treatment. The cells were incubated with varying concentrations of compounds for 120 hours. Compound concentrations range from 0.03 to 100 microM (half log increments) except for alpha-Tomatine (0.001-100 microM, half log increments), Neriifolin (0.0002-100 microM) and Peruvoside (0.01-100 microM). Drug treatment was performed in 5 replicate wells. Background absorbance was established by wells containing medium but no cells. Vehicle (DMSO) only was used as control. MTT (Sigma-Aldrich, St. Louis, Mo.) was added to each well at a final concentration of 0.5 mg/ml. Following a 2 hour incubation at 37° C., medium in the wells was replaced with 0.15 ml DMSO. The plates were agitated for 15 min using a microtiter plate shaker. […] Mean absorbance values were calculated from 5 replicate wells of each drug treatment following subtraction of background absorbance from blank samples and plotted as a percentage of control.

Ras:Raf complexes = experiment: Protein-fragment complementation assay H-Ras:Raf; assay type: cell-based, human; details: for Assay activity: hit in Ras/Raf assay, drugs screened at 10 micromolar; for level of the Ras:Raf complexes (intensity of the fluorescence) / subcellular location of the Ras:Raf complexes: FIG. 3E; for level of the Ras:Raf complexes (intensity of the fluorescence): compared with the vehicle alone; for subcellular location of the Ras:Raf complexes: in control cells complexes localized at the cell membrane
From the text: as §3, §4, §5, §6

PAK4:Cofilin = experiment: Protein-fragment complementation assay PAK4:Cofilin; assay type: cell-based, human; details: hit in PAK4/CFL assay; drugs screened at 10 micromolar
From the text: as §3, §4, §5, §6

[6] = hit in CDC42/PAK4 assay, drugs screened at 10 micromolar

SMILES | IC50 [1] [nM] | IC50 [2] [nM] | IC50 [3] [nM] | IC50 [4] [µM] | IC50 [5] [µM] | further results
CCCSc1ccc2nc(NC(=O)OC)[nH]c2c1 [Albendazole] | 240 | 140 | 180 | 0.3 | – | Assay activity (CDC42:PAK4 complexes): CDC42/PAK4
CC(C)COCC(CN(Cc1ccccc1)c1ccccc1)N1CCCC1 (stereo not drawn) [Bepridil] | – | 3680 | – | 8.69 | 5.75 | level of CDC42:PAK4 complexes (intensity of the fluorescence) (CDC42:PAK4 complexes): decrease in the level; Assay activity (CDC42:PAK4 complexes; [6]): CDC42/PAK4
C(=C\c1ccccc1)/CN1CCN(C(c2ccccc2)c2ccccc2)CC1 [Cinnarizine] | – | – | – | – | – | cell count (phase contrast images) (human tumor cell lines): decreased the cell count
CCN(CC)CCOc1ccc(C(=C(Cl)c2ccccc2)c2ccccc2)cc1 [Clomiphene] | – | – | – | – | – | Assay activity (Ras:Raf complexes): Ras/Raf
CNCCCN1c2ccccc2CCc2ccccc21 [Desipramine] | – | 10600 | – | 14.6 | 6.9 | level of the Ras:Raf complexes (intensity of the fluorescence) (Ras:Raf complexes): decrease in the level; subcellular location of the Ras:Raf complexes (Ras:Raf complexes): redistribution of the complexes to an intracellular structure; Assay activity (Ras:Raf complexes): Ras/Raf
Oc1ccc(Cl)cc1Cc1cc(Cl)ccc1O [Dichlorophene] | – | – | – | – | – | Assay activity (Ras:Raf complexes): Ras/Raf
COC(=O)Nc1nc2ccc(C(=O)c3ccccc3)cc2[nH]1 [Mebendazole] | 180 | 70 | 130 | 0.27 | – | Assay activity (PAK4:Cofilin): PAK4/CFL
CN1C[C@H](CNC(=O)OCc2ccccc2)C[C@@H]2c3cccc4c3c(cn4C)C[C@H]21 [Metergoline] | 5400 | 6970 | 3350 | 6.19 | 4.6 | level of CDC42:PAK4 complexes (intensity of the fluorescence) (CDC42:PAK4 complexes): decrease in the level; Assay activity (CDC42:PAK4 complexes; [6]): CDC42/PAK4; level of the Ras:Raf complexes (intensity of the fluorescence) (Ras:Raf complexes): decrease in the level; subcellular location of the Ras:Raf complexes (Ras:Raf complexes): redistribution of the complexes to an intracellular structure
CN(C)CCCN1c2ccccc2Sc2ccccc21 [Promazine] | 13900 | 13900 | 5130 | 13.9 | 16.4 | level of the Ras:Raf complexes (intensity of the fluorescence) (Ras:Raf complexes): decrease in the level; subcellular location of the Ras:Raf complexes (Ras:Raf complexes): redistribution of the complexes to an intracellular structure; Assay activity (Ras:Raf complexes): Ras/Raf
C[n+]1cc2c3c(ccc2c2ccc4cc5c(cc4c21)OCO5)OCO3 [Sanguinarine] | 780 | 810 | 180 | 0.33 | 0.34 | –
CC(C)(C)c1ccc(C(O)CCCN2CCC(C(O)(c3ccccc3)c3ccccc3)CC2)cc1 (stereo not drawn) [Terfenadine] | 550 | 990 | 350 | – | 0.38 | level of CDC42:PAK4 complexes (intensity of the fluorescence) (CDC42:PAK4 complexes): decrease in the level; Assay activity (CDC42:PAK4 complexes; [6]): CDC42/PAK4; cell count (phase contrast images) (human tumor cell lines): reduced the cell count
C[C@H]1CC[C@]2(NC1)O[C@H]1C[C@H]3[C@@H]4CC[C@H]5C[C@@H](O[C@@H]6O[C@H](CO)[C@H](O[C@@H]7O[C@H](CO)[C@@H](O)[C@H](O[C@@H]8OC[C@@H](O)[C@H](O)[C@H]8O)[C@H]7O[C@@H]7O[C@H](CO)[C@@H](O)[C@H](O)[C@H]7O)[C@H](O)[C@H]6O)CC[C@]5(C)[C@H]4CC[C@]3(C)[C@H]1[C@@H]2C [Tomatine] | 92 | 97 | 131 | 0.09 | – | Assay activity (CDC42:PAK4 complexes; [6]): Cdc42/PAK4
Cc1cccc(Nc2cc(Cl)nc(SCC(=O)O)n2)c1C [WY-14643] | – | – | – | – | – | proliferation of PC-3 cells (MTT assay) ([4]; FIG. 4, compared to the DMSO control): no effect on proliferation
Clc1ccccc1C(c1ccccc1)(c1ccccc1)n1ccnc1 [clotrimazole] | – | – | – | – | – | cell count (phase contrast images) (human tumor cell lines): decreased the cell count
COC(=O)[C@H]1[C@H]2C[C@H]3c4[nH]c5cc(OC)ccc5c4CCN3C[C@H]2C[C@@H](OC(=O)c2cc(OC)c(OC)c(OC)c2)[C@@H]1OC [isoreserpine] | – | – | – | – | – | cell count (phase contrast images) (human tumor cell lines): decreased the cell count
CC/C(=C(\c1ccccc1)c1ccc(OCCN(C)C)cc1)c1ccccc1 [tamoxifen citrate] | – | – | – | – | – | level of the Ras:Raf complexes (intensity of the fluorescence) (Ras:Raf complexes): decrease in the level; subcellular location of the Ras:Raf complexes (Ras:Raf complexes): redistribution of the complexes to an intracellular structure
